# Measured values taken from patent US11945812B2, “Annulated 2-amino-3-cyano thiophenes and derivatives for the treatment of cancer” (Boehringer Ingelheim International GmbH, priority 2020, dated 2024).
# pIC50: −log10 of the molar value. Where two headings read alike, the source gives them in different places.
# Tests used:
# [1] = target: Ba/F3 cells bearing a KRAS G12C mutation (Homo sapiens, UniProt P01116, G12C, cells depend on it); experiment: Ba/F3 cell model proliferation assay (AlamarBlue, 72 h); assay type: cell-based
# Chain of Ba/F3 cells bearing a KRAS G12C mutation (P01116 whole entry G12C): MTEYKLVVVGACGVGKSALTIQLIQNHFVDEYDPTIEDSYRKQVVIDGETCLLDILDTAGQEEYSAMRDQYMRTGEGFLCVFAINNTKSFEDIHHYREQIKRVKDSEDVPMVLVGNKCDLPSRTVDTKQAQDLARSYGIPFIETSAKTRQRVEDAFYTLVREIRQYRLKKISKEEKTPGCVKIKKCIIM
# Method: Ba/F3 Cell Model Generation and Proliferation Assay
# Plasmids containing KRASG12 mutants were obtained from GeneScript. To generate KRASG12-dependent Ba/F3 models, Ba/F3 cells were transduced with retroviruses containing vectors that harbor KRASG12 isoforms. Platinum-E cells (Cell Biolabs) were used for retrovirus packaging. Retrovirus was added to Ba/F3 cells. To ensure infection, 4 μg/mL polybrene was added and cells were spinfected. […] Cells with an infection efficiency of 10% to 20% were further cultivated and puromycin selection with 1 μg/mL was initiated. As a control, parental Ba/F3 cells were used to show selection status. Selection was considered successful when parental Ba/F3 cells cultures died. To evaluate the transforming potential of KRASG12 mutations, the growth medium was no longer supplemented with IL-3. Ba/F3 cells harboring the empty vector were used as a control. Approximately ten days before conducting the experiments, puromycin was left out.
# All treatments were performed in technical duplicates. The assay is run using a fully automated robotic system. Treated cells were incubated for 72 h at 37° C. with 5% CO2. AlamarBlue™ (ThermoFisher), a viability stain, was added and fluorescence measured in the PerkinElmer Envision HTS Multilabel Reader.
# [2] = Plasma protein binding (equilibrium dialysis), human plasma; assay type: in vitro ADME; conditions: read-out: PPB human fu
# Method: Plasma Protein Binding (PPB)
# Binding of test compound to plasma was determined using equilibrium dialysis (ED) and quantitative mass spectrometry interfaced with liquid chromatography (LC-MS). In brief, ED was performed with dialysis devices consisting of two chambers separated by a semipermeable membrane with a molecular weight cut-off of 5-10 kg/mol. One chamber was filled with commercially sourced plasma (mouse and human plasma, respectively) or serum (10% FCS in PBS) containing 1-10 μmol/L test compound and the other chamber was filled with phosphate-buffer saline (PBS) with or without dextran. The dialysis chamber was incubated for 3-5 hours at 37° C. After incubation, protein was precipitated from aliquots of each chamber and the concentration of test compound in the supernatant of the plasma-containing compartment (cplasma) and of the buffer-containing compartment (Cbuffer) was determined by LC-MS. The fraction of unbound test compound (not bound to plasma) (fu) was calculated according to the following equation: […]
# MiaPaCa-2 cells = experiment: MiaPaCa-2 CTG proliferation assay (pancreatic cancer); assay type: cell-based; conditions: Homo sapiens, MIA PaCa-2, 120 h; MiaPaCa-2 CTG proliferation, 5 days; read-out: IC50 MiaPACA2
# Method: MiaPaCa-2 CTG Proliferation Assay (Pancreatic Cancer)
# MiaPaCa-2 cells (ATCC® CRM-CRL-1420™) were grown in cell culture flasks (175 cm^2) using DMEM medium supplemented with 10% fetal bovine serum. […] Materials used for the assay were CulturPlate-384, White Opaque 384-well microplate, Sterile and Tissue Culture Treated (Perkin Elmer #6007680), DMEM medium and FBS # SH30071.03 (HyClone).
# The proliferation assays started (day1) with seeding cells in flat bottom 384 well microtiter plates in 90 μL DMEM medium supplemented with 10% FBS at a density of 500 cells/well. Any other luminescence compatible plate format is possible. On day 2, 10 μL dilutions of the test compounds covering a concentration range between app. 0, 1 and 10.000 nM were added to the cells. Cells were incubated for 5 days in a humidified, incubator with 5% CO2 at 37° C. On day 7 100 μl of Cell Titer Glow reagent (Cell titer Glo Luminescent Cat. No. G7571, Promega) were added to each well and incubated for additional 10 min at room temperature (with agitation). Luminescence was measured on a Wallac Victor using standard luminescence read out. IC50 values were calculated using standard Levenburg Marquard algorithms (GraphPad Prism).
# [3] = test system: ERK phosphorylation in NCI-H358_Cas9_SOS2; experiment: ERK phosphorylation assay 2 (AlphaLISA SureFire Ultra p-ERK1/2), SOS2 knock-out; assay type: cell-based; conditions: Homo sapiens, NCI-H358; assay 2 (marked with *); read-out: IC50 H358 pERK
# Description: ERK Phosphorylation Assay
# Materials Used for the Assay;
# [4] = Ba/F3 KRAS G12C cells, 72 h, 10% FCS, uncorrected, read-out: IC50 Ba/F3 KRASG12C
# [5] = corrected by plasma protein binding in 10% FCS (fraction unbound), read-out: IC50 Ba/F3 KRASG12C (corrected)
Compound,"GI50 [1, 4]","GI50 [1, 5]",fraction unbound [2],pIC50 (MiaPaCa-2 cells),pIC50 [3]
C=C(F)C(=O)N1CCN(c2cc(O[C@@H](C)[C@@H]3CCCN3C)nc(-c3cc([C@@]4(C)CCCc5sc(N)c(C#N)c54)on3)n2)[C@H](C)C1 [Ib-10],13.1 nM,0.83 nM,0.013,7.25,7.48
C=CC(=O)N1CCN(c2cc(O[C@@H](C)[C@@H]3CCCN3C)nc(-c3cc([C@@]4(C)CCCc5sc(N)c(C#N)c54)on3)n2)CC12CC2 [Ib-5],3.8 nM,0.22 nM,0.019,7.55,8.17
C=CC(=O)N1[C@@H](C)CN(c2cc(O[C@@H](C)[C@@H]3CCCN3C)nc(-c3cc([C@@]4(C)CCCc5sc(N)c(C#N)c54)sn3)n2)C[C@@H]1C [Id-4],1.3 nM,0.48 nM,0.014,7.82,8.66
C=C(F)C(=O)N1[C@@H](C)CN(c2cc(O[C@@H](C)[C@@H]3CCCN3C)nc(-c3cc([C@@]4(C)CCCc5sc(N)c(C#N)c54)on3)n2)C[C@@H]1C [Ib-11],12.6 nM,0.57 nM,,6.98,7.35
C=CC(=O)N1CCN(c2cc(O[C@@H](C)[C@@H]3CCCN3C)nc(-c3cc([C@@]4(C)CCCc5sc(N)c(C#N)c54)sn3)n2)CC12CC2 [Id-5],3.2 nM,1.08 nM,,7.57,8.51
C=CC(=O)N1[C@H](C)CN(c2cc(O[C@@H](C)[C@@H]3CCCN3C)nc(-c3cc([C@@]4(C)CCCc5sc(N)c(C#N)c54)no3)n2)C[C@@H]1C [Ic-5],6.7 nM,0.99 nM,0.02,7.32,7.88
C=CC(=O)N1CCC(Oc2cc(O[C@@H](C)[C@@H]3CCCN3C)nc(-c3cc([C@@]4(C)CCCc5sc(N)c(C#N)c54)sn3)n2)CC1 [Id-6],0.2 nM,0.1 nM,,7.86,8.96
C=CC(=O)N1[C@H](C)CN(c2cc(O[C@@H](C)[C@@H]3CCCN3C)nc(-c3cc([C@@]4(C)CCCc5sc(N)c(C#N)c54)sn3)n2)C[C@@H]1C [Id-2],2 nM,0.87 nM,0.009,7.67,8.27
C=CC(=O)N1CCN(c2cc(O[C@@H](C)[C@@H]3CCCN3C)nc(-c3cc(C4(C)CCCc5sc(N)c(C#N)c54)on3)n2)CC1 (stereo partly shown) [Ib-6],1.6 nM,0.27 nM,0.059,8.05,8.70
COC/C=C/C(=O)N1CCN(c2cc(O[C@@H](C)[C@@H]3CCCN3C)nc(-c3cc(C4(C)CCCc5sc(N)c(C#N)c54)no3)n2)CC1 (stereo partly shown) [Ic-9],87 nM,22.5 nM,0.043,6.48,7.34
C=CC(=O)N1CCN(c2cc(O[C@@H](C)[C@@H]3CCCN3C)nc(-c3cc([C@@]4(C)CCCc5sc(N)c(C#N)c54)sn3)n2)CC1 [Id-1],0.4 nM,0.19 nM,,8.65,9.15
C=CC(=O)N1[C@@H](C)CN(c2cc(O[C@@H](C)[C@@H]3CCCN3C)nc(-c3cc([C@@]4(C)CCCc5sc(N)c(C#N)c54)on3)n2)C[C@@H]1C [Ib-4],1.7 nM,0.09 nM,0.021,7.70,8.62
C=CC(=O)N1[C@@H](C)CN(c2cc(O[C@@H](C)[C@@H]3CCCN3C)nc(-c3cc([C@@]4(C)CCCc5sc(N)c(C#N)c54)no3)n2)C[C@@H]1C [Ic-4],1.8 nM,0.15 nM,0.027,8.16,8.47
C=CC(=O)N1CCN(c2cc(O[C@@H](C)[C@@H]3CCCN3C)nc(-c3cc([C@@]4(C)CCCc5sc(N)c(C#N)c54)on3)n2)[C@H](C)C1 [Ib-1],1.8 nM,0.14 nM,0.032,7.65,8.77
C=CC(=O)N1CCC(Oc2cc(N3CCN(C)C[C@@H]3C)nc(-c3cc(C4(C)CCCc5sc(N)c(C#N)c54)no3)n2)CC1 (stereo partly shown) [Ic-7],35.3 nM,8.9 nM,0.02,6.48,7.25
C=CC(=O)N1CCN(c2cc(O[C@@H](C)[C@@H]3CCCN3C)nc(-c3cc([C@@]4(C)CCCc5sc(N)c(C#N)c54)no3)n2)CC12CC2 [Ic-3],5.5 nM,0.6 nM,0.028,6.91,7.91
C=C(F)C(=O)N1[C@@H](C)CN(c2cc(O[C@@H](C)[C@@H]3CCCN3C)nc(-c3cc([C@@]4(C)CCCc5sc(N)c(C#N)c54)no3)n2)C[C@@H]1C [Ic-8],35.6 nM,2.78 nM,,6.40,6.87
COC/C=C/C(=O)N1CCN(c2cc(O[C@@H](C)[C@@H]3CCCN3C)nc(-c3cc([C@@]4(C)CCCc5sc(N)c(C#N)c54)on3)n2)[C@H](C)C1 [Ib-14],16 nM,1.06 nM,0.016,7.44,7.90
